Entries after “also recorded” stand apart in the source; their conditions may differ.
Legend:
[1] = test system: M2 MPNST tumors; test: Syngeneic subcutaneous mouse model of MPNST; type: in vivo; conditions: PD901 5 mg/kg daily oral; PTT 50 μL 1 mg/mL PBNPs intratumoral, 1.5 W/cm^2 10 minutes, once
Procedure: In vivo studies. 1 million M2 cells were injected into the backs of B6129SF1/J mice in 100 μL 50% phosphate buffered saline (PBS, Life Technologies, Carlsbad, CA)/50% Matrigel (Corning, Corning, NY). Treatment commenced when tumors reached 10 mm in diameter. Animals were treated in four groups: (1) Untreated (n=5): animals received no treatment, (2) PTT-treated (n=5): animals were intratumorally injected with 50 μL of 1 mg/mL PBNPs and irradiated for 10 minutes with 1.5 W/cm^2 NIR laser, (3) PD901-treated (n=5): animals were given 5 mg/kg PD901 daily by oral gavage in 0.5% hydroxypropyl methylcellulose and 0.2% Tween80, and (4) PD901 plus PTT combo-treated (n=5): animals were given both PTT and PD901 treatments as listed above. […] Tumors were measured daily by calipers. For histological analysis of the effects of the treatments, tumors were harvested eight hours post treatment (treatments described above; n=2-3 per group), processed, and stained with hematoxylin and eosin (H&E) for subsequent microscopy.

[2] = test system: ERK activation (p-ERK); test: Western blot for p-ERK in M2 cells; type: cell-based, mouse
Procedure: Western blots. Treated M2 cells were lysed in 1×RIPA buffer [50 mM Tris-HCL (pH 7.4), 150 mM NaCl, 1% Triton X-100, 1% sodium deoxycholate, 0.1% SDS, 1 mM EDTA, complete protease inhibitor (Roche, Basel, Switzerland) and phosphatase inhibitor (Roche, Basel, Switzerland)]. Samples were analyzed by SDS-PAGE and transferred onto PVDF membranes (Millipore, Billerica, MA). The blots were then blocked in 5% non-fat milk in TBST, followed by incubation of primary antibodies at 4° C. overnight. After washing, the blots were incubated in horseradish peroxidase (HRP)-conjugated secondary antibodies at room temperature for 1 hour. Signals were detected using ECL or ECL plus (GE healthcare, Little Chalfont, United Kingdom) followed by film development. The primary antibodies used are as follows: p-ERK (1:1,000, rabbit, Cell Signaling, Danvers, MA), ERK (1:2,000, rabbit, Cell Signaling, Danvers, MA), and β-actin (1:10,000, mouse, Sigma-Aldrich, St. Louis, MO).

[3] = test system: M2 mouse MPNST cells; test: Flow cytometry for apoptosis/necrosis and cell cycle; type: cell-based; conditions: 0.1, 1 and 10 μM, 24 h
Procedure: Flow cytometry. After the relevant treatments, M2 cells were stained with PE-Annexin V (BD Pharmingen, Franklin Lakes, NJ) and 7AAD (BD Pharmingen, Franklin Lakes, NJ). For cell cycle analysis, M2 cells were stained with propidium iodide (ThermoFisher Scientific, Carlsbad, CA) after treatment. Flow cytometry was performed on a BD FACSCalibur and analyzed with the FlowJo 7.6 software.

[4] = test system: M2 mouse MPNST cells; test: CellTiter-Glo cell viability assay; type: cell-based; conditions: 48 h, 48 h treatment
Procedure: Cell viability assays. M2 cells were seeded at 50,000 cells per well in 96-well cell culture plates overnight. After treatment, the cells were analyzed for viability using the ATP-based CellTiter-Glo Luminescent Cell Viability Assay (Promega, Madison, WI).

**Q.** Which results are given for `O=C(NOC[C@H](O)CO)c1ccc(F)c(F)c1Nc1ccc(I)cc1F` [PD901, PD-0325901]?
**A.** median survival [1]: 18 days; p-ERK expression / ERK activation ([2]; 1 μM, 4 h or 8 h, versus vehicle): effectively blocked; also recorded: markedly decreased; p-ERK expression ([2]; 4 h, HIGH doses: 1.0 μM PD901, 0.05 mg/mL PBNP + 1.5 W/cm^2 laser 10 minutes): complete eradication; mechanism of cell death [3]: both apoptosis (Annexin V+7AAD−) and late apoptosis/necrosis (7AAD+); cell cycle effect ([3]; concentration-dependent): significant arrest of M2 cells in the G0/G1 phase; IC50 [4]: ~1 µM

Source: patent US11931465B2, “Functionalized Prussian blue nanoparticles, combination Prussian blue nanoparticle-based nano-immunotherapy and applications thereof” (Children's National Medical Center, priority 2016, dated 2024)
